According to patent US20180271809A1, “USE OF NICLOSAMIDE IN THE TREATMENT OF P53-DEFICIENT CELLS” (AGENCY FOR SCIENCE, TECHNOLOGY AND RESEARCH, priority 2015, published 2018):

Experiments:
[1] = tested on: Mouse embryonic stem cells harbouring a p53K0 mutation; test: Teratoma growth in nude mice from mouse embryonic stem cells pre-treated with niclosamide; format: in vivo; conditions: mES cells treated with 2 μM for 48 hours before injection into nude mice; tumours observed after 24 days / 3 weeks
Experimental: Mouse embryonic stem cells harbouring a p53K0 mutation were either treated with DMSO or treated with niclosamide at a concentration of 2 μM for 48 hours. The resulting trypsinised cells were then resuspended in Phosphate buffer Saline. The cells were counted and resuspended to result in a final cell concentration of 1×10^6 cells/100 μl. Immediately after counting, the cells were transferred to animal facility for nude mice injection. 100 μl of DMSO treated cells were injected into the right inguinal region, while 100 μl niclosamide treated cells were injected into the left inguinal region of each mouse. After 24 days of the injection, tumour growth was observed. The resulting teratomas were surgically removed analysed to observe the ability of niclosamide to inhibit tumour growth. […] Therefore, an in vivo tumour model in nude mice was utilised. As a control, mouse embryonic stem (mES) cells were injected into nude mice and the mice monitored for the presence of tumour growth (teratomas). mES cells treated with niclosamide or DMSO treated control cells were injected into nude mice and tumour growth monitored after 3 weeks.

[2] = tested on: HCT116 p53^−/− cells; test: Colony forming assay (crystal violet) in isogenic HCT116 cell lines; format: cell-based; conditions: 0.5-3 μM, 48 hours of drug treatment, recovery
[3] = tested on: mouse embryonic fibroblast (MEF) cells harbouring p53 mutations (+/R172 or R172/R172); test: Niclosamide sensitivity of mouse embryonic fibroblast (MEF) cells with wild type or mutant p53; format: cell-based; conditions: p53 +/R172 or R172/R172 versus wild type
[4] = tested on: Caspase-3; test: Caspase-3 immunoblot of niclosamide-treated HCT116 cells; format: cell-based; conditions: HCT116 wild type p53 versus p53 deficient
Experimental: Like human fibroblast cells, these cells were also tested for apoptotic cell death, the data of which is shown in the graphs shown in FIG. 4B). […] Both HCT116 cells with wild type p53 and those which were p53 deficient were treated with niclosamide, and protein samples were immunoblotted with Caspase-3 antibody.

[5] = tested on: Human skin fibroblast cells (TOBA cells); test: Cell viability (light microscopy) and Annexin V apoptosis assay in p53-depleted human skin fibroblast cells; format: cell-based
Experimental: Human skin fibroblast cells (TOBA cells) were infected either with a control shRNA lentivirus or a p53-targeting shRNA virus (as described in the preceding section). After generation of a stable p53-knockdown (using puro selection), cells were analysed for cell viability in response to different doses of niclosamide. Briefly, wild type Toba cells, and p53 depleted cells were plated at 20,000 cell density in 6 well plates. Next day, cells were either DMSO treated or treated with varying doses of niclosamide. After 48 hours of drug incubation, the drug containing media was replaced with new cell culture medium to start recovery. After 8 days of recovery, the cells were imaged in light microscope at 10× objective lens.
As described above, DMSO and niclosamide-treated cells were analysed for the presence of apoptotic cell death by Annexin V staining. All cells in a well, including both rounded floating (that is, dead or dying cells) and adherent cells (that is, live cells) were collected carefully by trypsinisation and centrifuged at 400 g for 5 minutes. The pellet was resuspended in 200 μl of incubation buffer and after re-suspension, centrifuged at same speed as above to collect the washed sample pellets. […]

[6] = tested on: ovarian tumour samples derived from patient biopsy samples; test: Patient-derived ovarian tumour xenograft mouse model; format: in vivo; conditions: 150 mg/kg once, intravenously; 30 days post treatment
Experimental: Experiments were also performed using a patient-derived xenograft mouse model. In these experiments, ovarian tumour samples derived from patient biopsy samples were implanted into either the left or right flank of the mouse. These tumours were allowed to establish in the mouse and the tumour volume was measured according to standard practice every 2 days post implantation. After reaching a minimum threshold size of about 200 mm^3, the mice were treated once, intravenously, with niclosamide at a concentration of 150 mg/kg. The change in tumour volume was measured for further 30 days post treatment.

[7] = tested on: p53 null and p53 mutant cancer cells; test: Apoptotic cell death assays in p53 null and p53 mutant cancer cell lines; format: cell-based; conditions: data not shown
Experimental: To this end, various cancer cell lines/types were seeded according to their growth rate to be confluent at the same time. These cell lines were each treated with differing niclosamide concentrations for 48 hours. The cells were then allowed to recover in their respective media for 6 days, after which apoptotic cell death assays were performed. The resulting percentage of apoptotic cells in each sample were plotted on a 3D graph (data not shown).

[8] = tested on: p53-deficient HCT116 spheroid; test: 3D spheroid growth of co-cultured HCT116 p53+/+ and p53−/− cells; format: cell-based; conditions: 48 hours drug incubation, 6 more days culture
Experimental: H2B-GFP- HCT116p53^+/+ and H2B-RFP-p53^−/− cells were grown as co-culture in a ultralow attachment 96-well cell culture plates to promote the spheroid formation. Briefly, to generate 3D multicellular spheroids, H2B-GFP expressing wild type (WT) p53 cells and H2B-RFP expressing p53-negative cells were each seeded at 250 cells per 100 ∥l culture media into 96-well round-bottomed plate and spun down (1000 g, 5 min). The seeded cells were cultured for two days in 5% CO2 humidified atmosphere at 37° C. On third day, cells were either DMSO treated or treated with different doses of niclosamide. After 48 hours of drug incubation, spheroids were diluted to non-toxic concentrations via media exchange. Treated spheroids were then further cultured for 6 more days. Spheroids were imaged in Incell analyser 2000 with FITC and Texas-Red channels.

[9] = tested on: HCT116 p53^−/− cells; test: Co-culture cell viability / competition assay of H2B-GFP HCT116 p53+/+ and H2B-RFP HCT116 p53−/− cells; format: cell-based
Experimental: Stably expressing H2B-GFP-HCTp53^+/+ cell (wild type p53 cells) and H2B-RFP-HCTp53^−/− cells (cells lacking p53) were grown in co-culture to screen drug compounds sensitizing either wild type p53 cells or p53-negative cells. Briefly, 200 cells of each
HCT116p53^+/+ and HCT116p53^−/− were plated in a pre-coated 384-well drug plates at final cell density of 400 cells per well at a final volume of 80 μl per well. After plating cells into respective wells, plates were incubated for 6 days. After 6 days of drug incubation, plates were imaged in an Incell Analyzer 200 machine by performing a multi-channel read, that is applying FITC staining to count GFP positive cells and Texas Red staining to count RFP positive cells. After imaging, the raw data was processed through the Incell-Investigator software to count the number of GFP positive and RFP positive cells.
Wildtype HCT116 cells expressing H2B-GFP were co-cultured with HCT115 p53^−/− cells expressing H2B-RFP. […]
2000 cells each of H2B-GFP-HCT116p53^+/+ and H2B-RFP-HCT116p53^−/− were grown as co-culture in 96-well plates in a total volume of 100 ∥l. […] After 6 days of recovery, the cells were imaged in an Incell Analyzer 2000 machine and the percentage of viable cells was determined and plotted against the drug concentrations used in the experiment.

SMILES: O=C(Nc1ccc([N+](=O)[O-])cc1Cl)c1cc(Cl)ccc1O [niclosamide, 2′,5-dichloro-4′-nitrosalicylanilide]
- size of the teratomas versus DMSO control [1]: significant reduction in the size of the teratomas
- cell viability, HCT116 p53−/− versus HCT116 p53 wildtype (colony formation assay) [2]: decrease in the viability of HCT116 p53^−/− cells to a greater extent than the HCT116 p53 wildtype cells
- niclosamide sensitivity of p53 mutant MEF cells (bright field, crystal violet) [3]: p53 mutant MEF cells are sensitive to niclosamide
- induction of cleaved caspase in p53 deficient HCT116 cells (western blot) [4]: clear induction of the cleaved caspase in p53 minus
- apoptosis (Annexin V) in p53-deficient versus wildtype human fibroblasts ([5]; 1-4 μM, 48 hours, then recovery, flow cytometry): greater extent of apoptosis in p53-deficient human fibroblasts
- sensitivity / killing of p53-deficient human fibroblast cells (FIG. 3 taken together) ([5]; shp53 versus shcontrol cells): preferential killing of p53 deficient cells
- tumour growth (tumour volume) versus PBS control [6]: reduction in tumour growth
- susceptibility (apoptotic cells) of p53 null and p53 mutant cancer cells ([7]; 48 hours treatment, 6 days recovery): strongly susceptible to treatment with niclosamide in a dose dependent manner
- cell viability of the remaining (surviving) cells ([7]; certain cell lines): differentially reduced cell viability of the remaining cells in certain cell lines
- 3D spheroid growth, p53-deficient versus wildtype HCT116 [8]: greater reduction of 3D p53-deficient HCT116 spheroid growth compared to wildtype spheroid
- cell viability, HCT116 p53−/− versus HCT116 p53 wildtype (cell viability assay) ([9]; after 48 hours of drug treatment, compared with DMSO controls): decrease in the viability of HCT116 p53^−/− cells to a greater extent than the HCT116 p53 wildtype cells
- selective targeting in chemical biology screen (relative percentages of GFP and RFP cells) ([9]; co-culture, 48 hours treatment, 7 days recovery in drug free media): selectively targeting HCT116 p53^−/− cells
